From patent US20250340561A1, “QUINAZOLINE COMPOUND FOR INDUCING DEGRADATION OF G12D MUTANT KRAS PROTEIN” (Astellas Pharma Inc., priority 2021, published 2025)
Where a name gives a salt, the structure may show the parent alone. Read-outs that look alike come from different tables or passages of the source.

Assays:
[1] = test system: phosphorylation of ERK (Thr202/Tyr204); experiment: Test Example 2: ERK phosphorylation inhibition action in AsPC-1, Cell ELISA; assay type: cell-based, human; settings: AsPC-1 cells, 0% = 1 μM trametinib
Protocol: Test Example 2: Evaluation of ERK Phosphorylation Inhibition Action on Human G12D Mutant KRAS-Positive Pancreatic Cancer Line AsPC-1
The ERK phosphorylation inhibition action of test compounds was evaluated by measuring phosphorylation of the 202th threonine (Thr202) and the 204th tyrosine (Tyr204) of ERK located downstream of the KRAS signal by Cell ELISA.
AsPC-1 cells were seeded on a 384-well plate (from Greiner bio-one) at 36 μL/well to give 2.0×10^4 cells per well. As for the cell culture conditions, a RPMI 1640 medium containing 10% fetal bovine serum was used in the presence of 5% CO2 at 37° C.
The next day, the test compounds (6 points having final concentrations in the range of 10 μM to 3.0 nM), trametinib (MEK inhibitor) of a final concentration of 1 μM as a positive control and DMSO, which was the solvent for the test compounds, as a negative control were diluted 100-fold with a fresh medium and were added at 4 μL per well. The cells were then cultured for 24 hours. After culturing, a 30% glyoxal solution (40% glyoxal [from Nacalai Tesque] was diluted with PBS) was quickly added at 30 μL per well, and the plate was allowed to stand for 90 minutes at room temperature to thus immobilize the cells. Then, the plate was centrifuged to remove the supernatant (using a centrifugal dehydrator machine, the supernatant was removed by the same method hereinafter), and 0.1% Triton X-100-containing PBS was added at 20 μL per well. After allowing to stand for 10 minutes at room temperature, the supernatant was removed by centrifugation, and the same operation was further repeated. Next, 0.5% SDS-containing PBS was added at 20 μL per well, and after allowing to stand at room temperature for 30 minutes, the supernatant was removed by centrifugation. Subsequently, a blocking solution (Intercept Blocking Buffer) was added at 20 μL per well, and the plate was allowed to stand for 1 hour at room temperature. The supernatant was removed by centrifugation, and an ERK (Thr202/Tyr204) phosphorylation antibody (Phospho-p44/42 MAPK (Erk 1/2) (Thr202/Tyr204) (D13.14.4E) XP Rabbit mAb; from Cell Signaling Technology) diluted 2,500-fold with a blocking solution was added at 10 or 15 μL per well as a primary antibody. The plate was allowed to stand at 4° C. overnight.
The next day, the plate was centrifuged to remove the supernatant. 0.05% Tween-20-containing PBS was added at 50 μL per well, and the supernatant was removed by centrifugation to thus wash each well. The washing was performed three times in total. After washing, Goat anti-Rabbit IgG H&L (IRDye 800CW) diluted 1,000-fold with a blocking solution was added at […] as a secondary antibody, and the plate was allowed to stand for 1 hour at room temperature. The plate was centrifuged to remove the supernatant, and each well was washed three times with 0.05% Tween-20-containing PBS in the same manner as after the primary antibody reaction. After removing the supernatant by centrifuging the plate, the plate was dried as it was with air at room temperature for 3 hours or more, and the 800-nm fluorescent signals were measured with Aerius.
With the signaling value at the time of addition of DMSO taken as 100% and with the signaling value at the time of addition of 1 μM trametinib taken as 0%, the 50% inhibition values (IC50) were calculated by Sigmoid-Emax model nonlinear regression analysis. The molecular weights of the test compounds were calculated as the molecular weights of the dihydrochloride for Example No. 22, the trihydrochlorides for Example Nos. 2-7, 9-12, 14-18 and 30, the tetrahydrochlorides for Example Nos. 19 and 46, the pentahydrochloride for Example No. 21 and the free forms forming no salt for the remaining Example Nos. The results for some test compounds of the formula (I) are shown in Table 3.

[2] = test system: human G12D mutant KRAS-positive pancreatic cancer line AsPC-1; experiment: Test Example 3: non-anchorage-dependent cell growth inhibition, spheroid 3D cell culture; assay type: cell-based; settings: AsPC-1 spheroid 3D culture, 6 days, CellTiter Glo 2.0
Protocol: Test Example 3: Evaluation of Non-Anchorage-Dependent Cell Growth Inhibition Action on Human G12D Mutant KRAS-Positive Pancreatic Cancer Line AsPC-1
The non-anchorage-dependent cell growth inhibition action of test compounds was evaluated by spheroid 3D cell culture.
AsPC-1 cells were seeded on a low-cell-adhesive round bottom 384-well plate (PrimeSurface: from Sumitomo Bakelite) at 36 μL/well to give 5×10^2 cells per well. The cell culture was performed under the same conditions as in the Test Example 2.
The next day, the test compounds (6 points having final concentrations in the range of 10 μM to 3.0 nM) and DMSO, which was the solvent for the test compounds, as a negative control were diluted 100-fold with a fresh medium and were added at 4 μL per well. After culturing in the presence of […] at 37° C. for 6 days, CellTiter Glo 2.0 (from Promega) was added at 20 μL per well. After stirring with a plate mixer (from FINEPCR) at normal temperature for 1 hour, the luminescent signals were measured with ARVO X3 (from PerkinElmer).
With the signaling value in treatment with DMSO taken as […] and with the signaling value in the medium alone without cells taken as […], the […] inhibition values (IC50) were calculated by Sigmoid-Emax model nonlinear regression analysis. The molecular weights of the test compounds were calculated as the molecular weights of the dihydrochloride for Example No. 22, the trihydrochlorides for Example Nos. 2-7, 9-12, 14-18 and 30, the tetrahydrochlorides for Example Nos. 19 and 46, the pentahydrochloride for Example No. 21 and the free forms forming no salt for the remaining Example Nos. The results for some test compounds of the formula (I) are shown in Table 4.

[3] = Homo sapiens, ASPC1, 24 h, read-out: IC50
[4] = Homo sapiens, ASPC1, 144 h, read-out: IC50

Structure (SMILES) | IC50 ([1]; Homo sapiens, ASPC1, 24 h) | IC50 ([2]; Homo sapiens, ASPC1, 144 h) | further results
CO[C@@H](C)COc1nc(N2C[C@@H]3C[C@H]2CN3)c2cc(C3CC3)c(-c3c(C)c(F)cc4[nH]ncc34)c(OCc3ccc(-c4cn([C@H](C(=O)N5C[C@H](O)C[C@H]5C(=O)N[C@@H](CO)c5ccc(-c6scnc6C)cc5)C(C)C)nn4)cc3)c2n1 [Example 48] | 8 nM | 20 nM | 
Cc1ncsc1-c1ccc([C@H](CO)NC(=O)[C@@H]2C[C@@H](O)CN2C(=O)[C@H](C(C)C)N2Cc3cc(COc4c(-c5c(C)c(F)cc6[nH]ncc56)c(C5CC5)cc5c(N6C[C@@H]7C[C@H]6CN7)nc(OC6CCOCC6)nc45)ccc3C2=O)cc1 [Example 4] | 522 nM | 670 nM | 
Cc1ncsc1-c1ccc(C2(NC(=O)[C@@H]3C[C@@H](O)CN3C(=O)[C@@H](NC(=O)c3ccc(COc4c(-c5c(C)c(F)cc6[nH]ncc56)c(C5CC5)cc5c(N6C[C@@H]7C[C@H]6CN7)nc(OC6CCOCC6)nc45)cn3)C(C)C)CC2)cc1 [Example 2] | 779 nM | 1410 nM | 
Cc1ncsc1-c1ccc([C@H](CO)NC(=O)[C@@H]2C[C@@H](O)CN2C(=O)[C@H](C(C)C)n2cc(-c3ccc(COc4c(-c5cc(O)cc(F)c5C)c(C5CC5)cc5c(N6C[C@@H]7C[C@H]6CN7)nc(OC6CCOCC6)nc45)cc3)nn2)cc1 [Example 15] | 22 nM | 64 nM | 
Cc1ncsc1-c1ccc([C@H](CO)NC(=O)[C@@H]2C[C@@H](O)CN2C(=O)[C@H](C(C)C)n2cc(-c3ccc(COc4c(-c5c(C)c(F)cc6[nH]ncc56)c(C5CC5)cc5c(N6C[C@@H]7C[C@H]6CN7)nc(OC[C@H]6CCOC6)nc45)cc3)nn2)cc1 [Example 52] |  |  | IC50 ([1]; 24 hours): 11 nM; IC50 [2]: 31 nM
Cc1ncsc1-c1ccc(C2(NC(=O)[C@@H]3C[C@@H](O)CN3C(=O)[C@H](C(C)C)n3cc(-c4ccc(COc5c(-c6c(C)c(F)cc7[nH]ncc67)c(C6CC6)cc6c(N7C[C@@H]8C[C@H]7CN8)nc(OC7CCOCC7)nc56)cc4)nn3)CC2)cc1 [Example 6] | 58 nM | 100 nM | 
Cc1ncsc1-c1ccc([C@H](CO)NC(=O)[C@@H]2C[C@@H](O)CN2C(=O)[C@H](C(C)C)n2cc(-c3ccc(COc4c(-c5c(C)c(F)cc6[nH]ncc56)c(C5CC5)cc5c(N6C[C@@H]7C[C@H]6CN7)nc(OC6CCOCC6)nc45)cc3)nn2)cc1 [Example 7, (4R)-1-[(2S)-2-(4-{4-[({6-cyclopropyl-4-[(1S,4S)-2,5-diazabicyclo[2.2.1]heptan-2-yl]-7-(6-fluoro-5-methyl-1H-indazol-4-yl)-2-[(oxan-4-yl)oxy]quinazolin-8-yl}oxy)methyl]phenyl}-1H-1,2,3-triazol-1-yl)-3-methylbutanoyl]-4-hydroxy-N-{(1R)-2-hydroxy-1-[4-(4-methyl-1,3-thiazol-5-yl)phenyl]ethyl}-L-prolinamide n hydrochloride] |  |  | IC50 [1, 3]: 17 nM; IC50 [2, 4]: 31 nM
Cc1ncsc1-c1ccc([C@H](CO)NC(=O)[C@@H]2C[C@@H](O)CN2C(=O)[C@H](C(C)C)n2cc(-c3ccc(COc4c(-c5c(C)c(F)cc6[nH]ncc56)c(C5CC5)cc5c(N6C[C@@H]7C[C@H]6CN7)nc(OC[C@@H]6CCOC6)nc45)cc3)nn2)cc1 [Example 50] | 10 nM | 21 nM | 
Cc1ncsc1-c1ccc([C@H](CO)NC(=O)[C@@H]2C[C@@H](O)CN2C(=O)[C@H](C(C)C)n2cc(-c3ccc(COc4c(-c5c(C)c(F)cc6[nH]ncc56)c(C5CC5)cc5c(N6C[C@@H]7C[C@H]6CN7)nc(O[C@@H]6CCOC6)nc45)cc3)nn2)cc1 [Example 28] | 12 nM | 37 nM | 
Cc1ncsc1-c1ccc([C@H](CO)NC(=O)[C@@H]2C[C@@H](O)CN2C(=O)[C@H](C(C)C)n2cc(-c3ccc(COc4c(-c5c(C)c(F)cc6[nH]ncc56)c(C5CC5)cc5c(N6C[C@@H]7C[C@H]6CN7)nc(O[C@@H]6CCN(CC(F)F)C6)nc45)cc3)nn2)cc1 [Example 34] | 26 nM | 33 nM | 
COCC1(COc2nc(N3C[C@@H]4C[C@H]3CN4)c3cc(C4CC4)c(-c4c(C)c(F)cc5[nH]ncc45)c(OCc4ccc(-c5cn([C@H](C(=O)N6C[C@H](O)C[C@H]6C(=O)N[C@@H](CO)c6ccc(-c7scnc7C)cc6)C(C)C)nn5)cc4)c3n2)CC1 [Example 62] | 15 nM | 34 nM | 
Cc1ncsc1-c1ccc([C@H](CO)NC(=O)[C@@H]2C[C@@H](O)CN2C(=O)[C@H](C(C)C)n2cc(-c3ccc(COc4c(-c5c(C)c(F)cc6[nH]ncc56)c(C5CC5)cc5c(N6C[C@@H]7C[C@H]6CN7)nc(OC[C@@H]6CCCN6C)nc45)cc3)nn2)cc1 [Example 57] |  |  | IC50 [1, 3]: 65 nM; IC50 [2, 4]: 90 nM
Cc1ncsc1-c1ccc([C@H](CO)NC(=O)[C@@H]2C[C@@H](O)CN2C(=O)[C@H](C(C)C)n2cc(-c3ccc(COc4c(-c5c(C)c(F)cc6[nH]ncc56)c(C5CC5)cc5c(N6C[C@@H]7C[C@H]6CN7)nc(OC6CCOCC6)nc45)cc3)nn2)nc1 [Example 35] | 55 nM | 43 nM | 
Cc1ncsc1-c1ccc([C@H](CO)NC(=O)[C@@H]2C[C@@H](O)CN2C(=O)[C@H](C(C)C)n2cc(-c3ccc(COc4c(-c5c(C)c(F)cc6[nH]ncc56)c(C5CC5)cc5c(N6C[C@@H]7C[C@H]6CN7)nc(O[C@H](C)CN(C)C)nc45)cc3)nn2)cc1 [Example 46] | 22 nM | 56 nM | 
COCCN1CC[C@H](Oc2nc(N3C[C@@H]4C[C@H]3CN4)c3cc(C4CC4)c(-c4c(C)c(F)cc5[nH]ncc45)c(OCc4ccc(-c5cn([C@H](C(=O)N6C[C@H](O)C[C@H]6C(=O)N[C@@H](CO)c6ccc(-c7scnc7C)cc6)C(C)C)nn5)cc4)c3n2)C1 [Example 32] | 92 nM | 186 nM | 
Cc1ncsc1-c1ccc([C@H](CO)NC(=O)[C@@H]2C[C@@H](O)CN2C(=O)[C@H](C(C)C)n2cc(-c3ccc(COc4c(-c5c(C)c(F)cc6[nH]ncc56)c(C5CC5)cc5c(N6C[C@@H]7C[C@H]6CN7)nc(OC6CCOCC6)nc45)cc3F)nn2)cc1 [Example 49, (4R)-1-[(2S)-2-(4-{4-[({6-cyclopropyl-4-[(1S,4S)-2,5-diazabicyclo[2.2.1]heptan-2-yl]-7-(6-fluoro-5-methyl-1H-indazol-4-yl)-2-[(oxan-4-yl)oxy]quinazolin-8-yl}oxy)methyl]-2-fluorophenyl}-1H-1,2,3-triazol-1-yl)-3-methylbutanoyl]-4-hydroxy-N-{(1R)-2-hydroxy-1-[4-(4-methyl-1,3-thiazol-5-yl)phenyl]ethyl}-L-prolinamide] | 21 nM | 46 nM | 
